The source made the active and inactive calls. No rule for the calls is given here.
Each molecule was assayed against Ubiquitin-conjugating enzyme E2 N (Homo sapiens) (UniProt P61088) (assay: UBE2N binders by NMR, biophysical, purified protein (AID 1552)). Conditions: NMR binding to purified UBE2N.
Chain of Ubiquitin-conjugating enzyme E2 N (Homo sapiens) (P61088 whole entry, looked up): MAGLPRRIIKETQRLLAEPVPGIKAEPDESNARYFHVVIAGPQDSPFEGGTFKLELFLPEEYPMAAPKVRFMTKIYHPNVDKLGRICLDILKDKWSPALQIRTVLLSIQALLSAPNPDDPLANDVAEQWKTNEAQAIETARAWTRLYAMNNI

| Compound | Kd |
| --- | --- |
| COCc1nc(-c2cc(Br)ccc2OC)no1 | > 4 mM (inactive) |
| Nc1cc(N)nc(SCc2cccnc2)n1 | > 4 mM (inactive) |
| Nc1c(C(=O)O)sc2ncccc12 | > 4 mM (inactive) |
| O=c1[nH]cc(NCc2ccccc2)c(=O)[nH]1 | > 4 mM (inactive) |
| COc1ccc(C(=O)/C=C2\NC(=S)NC2=O)cc1 | > 4 mM (inactive) |
| OCc1ccc2nonc2c1 | > 4 mM (inactive) |
| NCc1ccc2c(c1)OCO2 | > 4 mM (inactive) |
| COc1cc(C2NC(=S)NC(C)=C2C(C)=O)ccc1O (configuration not stated) | > 4 mM (inactive) |
| CC1Cc2nc(SCC(N)=O)n(C)c(=O)c2S1 (configuration not stated) | > 4 mM (inactive) |
| CC(=O)Nc1nnc(-c2ccccn2)o1 | > 4 mM (inactive) |
| Nc1cc(C(=O)O)ccc1N1CCCCCC1 | > 4 mM (inactive) |
| CC(=O)O[C@H]1C[C@@H](OC(C)=O)C(C)(C)C2C[C@@H](OC(C)=O)[C@]3(C)C(CC[C@@]4(C)[C@H](c5ccoc5)C(=O)[C@H]5O[C@]543)[C@]21C (some centres not stated) | > 4 mM (inactive) |
| Cc1csc(CCc2nc(C)cs2)n1 | > 4 mM (inactive) |
| O=C(O)C1CN2CCC1CC2 (configuration not stated) | > 4 mM (inactive) |
| N#Cc1nc(-c2ccccc2Cl)oc1N1CCOCC1 | > 4 mM (inactive) |
| COc1ccccc1-c1nc(=S)[nH][nH]1 | > 4 mM (inactive) |
| C[C@H]1C(=O)CCC2[C@]3(C)CC[C@@]4(C)C5CC(C)(C)CC[C@]5(C)CC[C@]4(C)C3CC[C@@]21C (some centres not stated) | > 4 mM (inactive) |
| O=c1cc(-c2ccccc2)oc2c(O)c(O)ccc12 | > 4 mM (inactive) |
| Nc1ccc2c(C(F)(F)F)cc(=O)oc2c1 | > 4 mM (inactive) |
| CCOC(=O)CC1Sc2ccccc2NC1=S (configuration not stated) | > 4 mM (inactive) |
| OCC1CN(Cc2ccccc2)CCO1 (configuration not stated) | > 4 mM (inactive) |
| CC(=O)Nc1ccc(NC(=O)/C=C\C(=O)O)cc1 | > 4 mM (inactive) |
| O=C1N=c2ccccc2=C1c1sc(=S)[nH]c1O | > 4 mM (inactive) |
| O=C(Nc1cccnc1)c1c(F)cccc1F | > 4 mM (inactive) |

| Compound | Kd |
| --- | --- |
| COC(=O)c1cccc(N)c1 | > 4 mM (inactive) |
| Cc1ccc2c(c1)CCCN2C(=O)c1c(C)noc1C | > 4 mM (inactive) |
| NC1C2CC3CC1CC(O)(C3)C2 (configuration not stated) | > 4 mM (inactive) |
| CCOC(=O)c1c(C)n([O-])c2ccccc2[n+]1=O | > 4 mM (inactive) |
| O=C1CSC(=Nc2cccc(C(F)(F)F)c2)N1 | > 4 mM (inactive) |
| C=C1C2=CC(=O)O[C@@H](c3ccoc3)[C@]2(C)CCC1[C@@]1(C)C=CC(=O)C(C)(C)[C@@H]1CC(=O)OC (some centres not stated) | > 4 mM (inactive) |
| Nc1ccc(Cc2ccc(N)cc2)cc1 | > 4 mM (inactive) |
| Cc1ccc(/C=C/C(=O)O)cc1S(=O)(=O)NCCO | > 4 mM (inactive) |
| O=C(c1ccccc1)c1cncc(Br)c1 | > 4 mM (inactive) |
| NC(=NCCC[C@H](N)C(=O)O)NC(CCC(=O)O)C(=O)O (some centres not stated) | > 4 mM (inactive) |
| O=C(O)CN1C(=O)c2cccc([N+](=O)[O-])c2C1=O | > 4 mM (inactive) |
| O=c1nc(N2CCCCC2)nc2n1CCO2 | > 4 mM (inactive) |
| CSc1ccc(S(=O)(=O)N2CCCC2)cc1 | > 4 mM (inactive) |
| O=C(O)c1cccc(O)c1O | > 4 mM (inactive) |
| CC(=O)n1c(N)nc2ccccc21 | > 4 mM (inactive) |
| COc1cc([C@@H]2c3cc4c(cc3[C@H](O)[C@H]3COC(=O)[C@@H]23)OCO4)cc(OC)c1OC | > 4 mM (inactive) |
| Nc1cc(-c2ccco2)[nH]n1 | > 4 mM (inactive) |
| CN1CCC(NC(=O)c2c(F)cccc2Cl)CC1 | > 4 mM (inactive) |
| CCOC(=O)c1cnn2ccccc12 | > 4 mM (inactive) |
| OCC1=Cc2ccccc2OC1 | > 4 mM (inactive) |
| CC(=O)O[C@@H]1CC[C@@]2(C)C(CC[C@]3(C)C2CC=C2C4CC(C)(C)CC[C@]4(C(=O)O)CC[C@]23C)C1(C)C (some centres not stated) | > 4 mM (inactive) |
| C(=C\c1ccccc1)/C=N/n1cnnc1 | > 4 mM (inactive) |
| O=C1Nc2ccccc2C12OCCO2 | > 4 mM (inactive) |
| O=C(NCc1n[nH]c(=O)c2ccccc12)C1CC1 | > 4 mM (inactive) |

| Compound | Kd |
| --- | --- |
| CN1CCC(N2CCCC(C(N)=O)C2)CC1 (configuration not stated) | > 4 mM (inactive) |
| Cn1nnc2cc(C(=O)NCc3ccco3)ccc21 | > 4 mM (inactive) |
| COc1ccc(/C=C2/NC(=S)NC2=O)cc1 | > 4 mM (inactive) |
| O=NN1C(=O)c2ccccc2C1=O | > 4 mM (inactive) |
| CC(C)(C)c1ccc(SCC(N)=O)cc1 | > 4 mM (inactive) |
| C1CCN2C[C@@H]3C[C@H](CN4CCCC[C@@H]34)[C@H]2C1 | > 4 mM (inactive) |
| CC(=O)c1c(O)cc(O)cc1O | > 4 mM (inactive) |
| CCN1C(=O)N(CO)C2C1N(C)C(=O)N2C (configuration not stated) | > 4 mM (inactive) |
| COc1cc2c(cc1O)CC1c3c(cc(O)c(OC)c3-2)CCN1C (configuration not stated) | > 4 mM (inactive) |
| CC(Sc1ncn[nH]1)C(=O)O (configuration not stated) | > 4 mM (inactive) |
| CS(=O)(=O)Nc1ccccc1C(=O)c1ccccc1 | > 4 mM (inactive) |
| O=C(Nc1ccon1)c1ccccc1Cl | > 4 mM (inactive) |
| CC(=O)NC(NC(C)=O)c1ccccc1 | > 4 mM (inactive) |
| Cc1ccc(SCCN2C(=O)NC(C)(C)C2=O)cc1 | > 4 mM (inactive) |
| COc1ccc2cc3[n+](cc2c1OC)CCc1cc2c(cc1-3)OCO2 | > 4 mM (inactive) |
| NC(=O)c1ccsc1NC(=O)c1ccccc1[N+](=O)[O-] | > 4 mM (inactive) |
| O=C(/C=C(\O)c1ccccc1)c1ccccc1O | > 4 mM (inactive) |
| CC(=O)Oc1ccc(-c2nc(-c3cccnc3)no2)cc1 | > 4 mM (inactive) |
| CNC(Cc1c[nH]c2ccccc12)C(=O)O (configuration not stated) | > 4 mM (inactive) |
| Nc1nc2ccccc2n1CCN1CCCC1 | > 4 mM (inactive) |
| Nc1nc2ccc(N3CCOCC3)cc2s1 | > 4 mM (inactive) |
| CC(=O)Nc1cccc(N(C)S(C)(=O)=O)c1 | > 4 mM (inactive) |
| Cn1cc(Cl)c(C(=O)NC2CCCC2)n1 | > 4 mM (inactive) |
| CC(=O)NC(=S)Nc1ccccc1C | > 4 mM (inactive) |

| Compound | Kd |
| --- | --- |
| Cc1ccc(C)c(C(=O)NCc2ccncc2)c1 | > 4 mM (inactive) |
| CSc1ncnc2nc[nH]c12 | > 4 mM (inactive) |
| O=c1c(O)c(-c2ccc(O)c(O)c2)oc2cc(O)ccc12 | > 4 mM (inactive) |
| O=C(Nc1ccccc1)Nc1ccccn1 | > 4 mM (inactive) |
| CC1(C)C(=O)C=C[C@@]2(C)C1C=C[C@]1(C)C2CC[C@@]2(C)[C@H](c3ccoc3)OC(=O)C3OC321 (some centres not stated) | > 4 mM (inactive) |
| N#Cc1c(N)c(C(=O)c2ccccc2)n2c1CCC2 | > 4 mM (inactive) |
| CNC(=O)c1ccccc1N | > 4 mM (inactive) |
| CN1C(CC(=O)c2ccccc2)CCCC1CC(O)c1ccccc1 (configuration not stated) | > 4 mM (inactive) |
| O=C1CCCN1C(=O)c1ccc(F)cc1 | > 4 mM (inactive) |
| CCC(/C=C/[C@@H](C)[C@H]1CCC2C3CC=C4C[C@@H](O)CC[C@]4(C)C3CC[C@@]21C)C(C)C (some centres not stated) | > 4 mM (inactive) |
| O=C(O)c1ccc(CN2CCCCC2)o1 | > 4 mM (inactive) |
| O=C1CC[C@]23/C=C/C(=O)NCCCCNCCCNC(=O)/C=C/c4ccc(c2c4)O[C@@H]3C1 | > 4 mM (inactive) |
| Clc1ccccc1OCc1nc(-c2ccccn2)no1 | > 4 mM (inactive) |
| O=C(/C=C/c1ccc(O)c(O)c1)O[C@@H]1C[C@](O)(C(=O)O)C[C@@H](O)[C@H]1O | > 4 mM (inactive) |
| CN(C)S(=O)(=O)N1CCc2ccccc21 | > 4 mM (inactive) |
| Cc1ccc(-n2cnnn2)c2cccnc12 | > 4 mM (inactive) |
| COc1ccc(NC2=NCC(C)S2)cc1 (configuration not stated) | > 4 mM (inactive) |
| COc1cc2c(cc1-c1coc3c4c(c(OC)cc3c1=O)OC(C)(C)C=C4)OCO2 | > 4 mM (inactive) |
| NC(=O)c1oc2ccccc2c1N | > 4 mM (inactive) |
| Cc1nc2ccccc2c(=O)n1N1C(=O)CCCC1=O | > 4 mM (inactive) |
| Cc1oc(S(=O)(=O)N2CCCCC2)cc1C(=O)O | > 4 mM (inactive) |
| O=C(Nc1c[nH]c(=O)[nH]c1=O)c1ccccc1F | > 4 mM (inactive) |
| O=C1CSC2(CN3CCC2CC3)N1 (configuration not stated) | > 4 mM (inactive) |
| CC(=O)OC1CCC23C(=O)OC45CCC(C6=CC(=O)OC6)C4(C)CCC2C5CCC3(O)C1 (configuration not stated) | > 4 mM (inactive) |

| Compound | Kd |
| --- | --- |
| CCCOn1nnnc1-c1ccccc1 | > 4 mM (inactive) |
| CN1CCC=C(C(=O)O)C1 | > 4 mM (inactive) |
| Cc1nnc(NCCN2CCOCC2)[nH]c1=O | > 4 mM (inactive) |
| CCOC(=O)c1ccc(Oc2ccc(C)nn2)cc1 | > 4 mM (inactive) |
| CNC(=O)C(=O)Nc1cccc(Cl)c1 | > 4 mM (inactive) |
| Cc1cc(N2CCCC2=O)c(N)cc1N | > 4 mM (inactive) |
| CS(=O)(=O)N1CCN(C(=O)c2ccccc2)C1 | > 4 mM (inactive) |
| COc1ccc(Cl)cc1-c1nc(-c2ccncc2)no1 | > 4 mM (inactive) |
| O=C(Nc1ccon1)c1cccc(C(F)(F)F)c1 | > 4 mM (inactive) |
| O=C1CCC([N+](=O)[O-])C(c2ccccc2F)N1 (configuration not stated) | > 4 mM (inactive) |
| CC(=O)Nc1cccc(Cn2cccn2)c1 | > 4 mM (inactive) |
| CC(C)=CCCC1(C)C=Cc2c(O)c3c(c(CC=C(C)C)c2O1)OC12C(=CCCC1C(C)(C)O[C@@]2(C/C=C(\C)C(=O)O)C(=O)O)C3=O (some centres not stated) | > 4 mM (inactive) |
| COc1ccc(-c2ccc(=O)n(CC(N)=O)n2)cc1 | > 4 mM (inactive) |
| Cc1nc2c(=O)[nH]c3ccccc3c2o1 | > 4 mM (inactive) |
| Cc1ccc(C)c(S(=O)(=O)NCc2cccnc2)c1 | > 4 mM (inactive) |
| CNC(=S)N1CCN=C1Nc1nc(C)cc(C)n1 | > 4 mM (inactive) |
| C=C1C[C@]23C[C@@]1(O)CC[C@H]2[C@@]12C=C[C@H](O)C(C)(C(=O)O1)[C@H]2[C@@H]3C(=O)O | > 4 mM (inactive) |
| Cc1cc2nc3c(=O)[nH]c(=O)nc-3n(CC(O)C(O)C(O)CO)c2cc1C (configuration not stated) | > 4 mM (inactive) |
| Cc1onc(-c2ccc(F)cc2)c1C(=O)O | > 4 mM (inactive) |
| COC(=O)NCc1cc2cc(Cl)ccc2[nH]1 | > 4 mM (inactive) |
| O=c1nc(C(F)(F)F)nc2ccccn12 | > 4 mM (inactive) |

Source: PubChem BioAssay AID1552 (Sanford-Burnham Center for Chemical Genomics, 2009)
